Reference: patent US20150203498A1, “INHIBITORS OF PHOSPHODIESTERASE 10 ENZYME” (Janssen Pharmaceutica NV, priority 2012, published 2015)
Several values for one entry are separate records, joined by “and”; a condition that tells them apart may be missing. Identical values can stand only once. Like-named read-outs stand apart in the source and are kept apart here.

Experiments:
[1] = Pharmacokinetics of oral microdose in healthy subjects; assay type: in vivo, human; details: single oral dose of 100 μg
Description: The pharmacokinetics of an oral microdose of compound 1 according to the invention and compound 1 of WO2011/051342 was studied by a single-dose, open-label, parallel-group, randomized pharmacokinetic (PK) study. Each treatment group consisted of 6 subjects (healthy men between 18 to 55 years with a body mass index (BMI) between 18 and 30 kg/m^2 (inclusive) and body weight not less than 50 kg). Subjects were randomized to receive either compound 1 of WO2011/051342 or compound 1 (according to the invention) treatment.
Compound 1 of WO2011/051342 and compound 1 according to the invention were supplied as a 0.1 mg/mL oral solution containing HP-β-CD and citric acid in purified water. The pH of the solution was adjusted to pH 2.0 by the use of hydrochloric acid. Subjects were admitted to the investigational site on Day -1. Following an overnight fast of at least 10 hours, subjects received a single oral aqueous solution of […] of compound 1 of WO2011/051342 or compound 1 according to the invention, with 240 mL of noncarbonated water as per randomization in the morning of Day 1 between 7:00 AM and 10:30 AM. Drinks were not allowed from 1 hour prior until 1 hour after drug administration. Blood samples were collected at specified time points to measure compound 1 of WO2011/051342 or compound 1 (according to the invention) plasma concentrations. Subjects were discharged on Day 3 after collecting the 48-hour PK sample. Subjects returned to the clinical unit on the morning of Day 4 for the 72-hour PK blood sampling.
Venous blood samples of 6 mL for the measurement of compound 1 of WO2011/051342 or compound 1 according to the invention plasma concentrations were collected at specified time points.
Plasma samples were analyzed to determine concentrations of compound 1 of WO2011/051342 or compound 1 according to the invention using a qualified liquid chromatography/mass spectrometry/mass spectrometry (LC-MS/MS) method.
Pharmacokinetic analyses were performed for all subjects' data who received a dose of compound 1 of WO2011/051342 and compound 1 according to the invention. Plasma concentrations versus time profiles were plotted for each subject. Mean concentration versus time profiles were plotted for each compound, based on planned blood sampling times. Descriptive statistics, including arithmetic mean, standard deviation, CV, geometric mean, median, minimum, and maximum were calculated for the plasma concentrations at each sampling time and for all PK parameters of compound 1 of WO2011/051342 and compound 1 according to the invention.

[2] = target: T1, hPDE10A2 (Homo sapiens, UniProt Q9Y233); assay: In vitro assay PDE10A, human recombinant enzyme (SPA, 3H-cAMP); assay type: biochemical; details: -log IC50 expressed in mol/L; 60 nM cAMP; read-out: PDE10A2 pIC50 - human enzyme (converted)
T1 construct: made in house; host or cells: Sf9 insect cells (baculovirus)
Method: (§1) Human or rat recombinant PDE10A (hPDE10A2 or rPDE10A2) was expressed in Sf9 cells using a recombinant hPDE10A or rPDE10A baculovirus construct. Cells were harvested after 48 h of infection and the hPDE10A or rPDE10A protein was purified by metal chelate chromatography on Ni-sepharose 6FF. Tested compounds were dissolved and diluted in 100% DMSO to a concentration 100 fold of the final concentration in the assay. Compound dilutions (0.4 μl) were added in 384 well plates to 20 μl of incubation buffer (50 mM Tris pH 7.8, 8.3 mM MgCl2, 1.7 mM EGTA). 10 μl of hPDE10A or rPDE10A enzyme in incubation buffer was added and the reaction was started by addition of 10 μl substrate to a final concentration of 60 nM cAMP and 0.008 μCi ^3H-cAMP. The reaction was incubated for 60 min. at RT. After incubation, the reaction was stopped with 20 μl of stop solution consisting of 17.8 mg/ml PDE SPA (scintillation proximity assay) beads. After sedimentation of the beads during 30 min. the radioactivity was measured in a Perkin Elmer Topcount scintillation counter and results were expressed as cpm. For blanc values the enzyme was omitted from the reaction and replaced by incubation buffer. Control values were obtained by addition of a final concentration of 1% DMSO instead of compound. A best fit curve was fitted by a minimum sum of squares method to the plot of % of control value substracted with blanc value versus compound concentration and the half maximal inhibitory concentration (IC50) value was derived from this curve.

[3] = target: T2, rPDE10A2 (Rattus norvegicus, UniProt Q9QYJ6); assay: In vitro assay PDE10A, rat recombinant enzyme (SPA, 3H-cAMP); assay type: biochemical; details: -log IC50 expressed in mol/L; 60 nM cAMP; read-out: PDE10A2 pIC50 - rat enzyme (converted)
T2 construct: made in house; host or cells: Sf9 insect cells (baculovirus)
T2 sequence (Q9QYJ6 1-794): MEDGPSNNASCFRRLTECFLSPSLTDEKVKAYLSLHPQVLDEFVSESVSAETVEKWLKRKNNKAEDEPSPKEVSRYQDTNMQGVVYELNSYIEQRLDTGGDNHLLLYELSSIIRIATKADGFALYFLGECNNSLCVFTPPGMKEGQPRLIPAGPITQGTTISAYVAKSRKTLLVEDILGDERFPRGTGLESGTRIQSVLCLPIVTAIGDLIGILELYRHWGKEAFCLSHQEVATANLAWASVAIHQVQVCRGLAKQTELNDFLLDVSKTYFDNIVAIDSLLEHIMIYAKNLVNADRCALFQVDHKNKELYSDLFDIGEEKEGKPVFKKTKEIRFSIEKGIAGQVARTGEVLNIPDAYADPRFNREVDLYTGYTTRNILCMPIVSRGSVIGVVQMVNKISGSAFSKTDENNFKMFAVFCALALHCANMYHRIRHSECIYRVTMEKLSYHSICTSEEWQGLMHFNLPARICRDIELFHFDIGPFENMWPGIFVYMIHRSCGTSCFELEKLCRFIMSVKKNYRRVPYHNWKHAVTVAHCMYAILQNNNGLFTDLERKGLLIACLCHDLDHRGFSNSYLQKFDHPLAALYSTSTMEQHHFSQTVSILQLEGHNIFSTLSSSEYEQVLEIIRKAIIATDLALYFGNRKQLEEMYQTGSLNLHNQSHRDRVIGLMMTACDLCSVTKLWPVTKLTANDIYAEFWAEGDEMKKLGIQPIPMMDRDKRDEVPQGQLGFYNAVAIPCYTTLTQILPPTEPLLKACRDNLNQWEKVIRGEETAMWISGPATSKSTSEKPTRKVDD
Method: as §1

[4] = test system: apomorphine-induced stereotypy; assay: Apomorphine-induced stereotypy in rats (APO); assay type: in vivo, rat; details: apomorphine 1.0 mg/kg i.v.; for ED50: Rattus norvegicus
Method: Apomorphine (1.0 mg/kg, i.v.)-induced stereotypy (compulsive sniffing, licking, chewing) was scored every 5 min. over the first hour after injection of apomorphine, following a 1 hour interval pre-treatment with the test compound. The score system was: (3) pronounced, (2) moderate, (1) slight, and (0) absent. Criteria for drug-induced inhibition of stereotypy: fewer than 6 scores of 3 (0.16% false positives), fewer than 6 scores of 2 (0.0% false positives), or fewer than 7 scores of 1 (0.81% false positives).

[5] = test system: plasma proteins; assay: Plasma protein binding by equilibrium dialysis; assay type: in vitro ADME, human; details: human plasma; for Free fraction, Average per subject: average of duplicate per subject; for Free fraction: single determinations, subjects 1-3 in duplicate, equilibrium dialysis 4 h, 37° C.; for Concentration dependency in the plasma protein binding: within the concentration range tested
Method: (§2) The plasma protein binding and blood distribution was investigated in healthy human subjects. Fresh blood was collected and centrifugated (approximately 1700 g for 10 min, room temperature, Hettich Rotixa AP centrifuge). The experiment was started within 4 hours after blood collection.
(§3) Individual blank plasma samples from three healthy male subjects, tested in duplicate, were fortified with compound la or compound lb at different concentrations (see Table 5). Plasma samples were spiked with 10 μl spike solution per ml of sample (1% ethanol (v/v)).
(§4) Fortified plasma was subjected to equilibrium dialysis (ED), for 4 h against a 0.067 M phosphate buffer, pH 7.17 at 37° C. in a Dianorm system with identical macro-1 Teflon cells and Spectra/Por® RC 2 dialysis membranes (MW cut-off 12-14 kDa). After dialysis, the contents of the two compartments of the dialysis cells were collected separately. The buffer samples were diluted with 1 mL of 5% Bovine Serum Albumin in a Phosphate buffer 0.05M, pH 7.5.
(§5) The plasma samples (before and after equilibrium dialysis) and buffer samples were analysed for compound la or compound lb using a qualified chiral LC-MS/MS assay on a API4000 mass spectrometer (Applied Biosystems).
(§6) The fraction of the unbound test compound (fu) was calculated as the ratio of the unbound concentration (Cu) in the buffer compartment to the total concentration (CED) in the protein compartment of the dialysis cells. The percentage of the free test compound was calculated as […]

[6] = Plasma protein binding by equilibrium dialysis; assay type: in vitro ADME, human; details: male, human, plasma, pH 7.17, human plasma
Method: as §2, §3, §4, §5, §6

[7] = male, human, plasma, 100 ug, fasted, mean
[8] = average of duplicate per subject, read-out: Free fraction, Average per subject
[9] = single determinations, subjects 1-3 in duplicate, equilibrium dialysis 4 h, 37° C., read-out: Free fraction
[10] = iv, 1 hour pre-treatment with test compound, dose at which 50% of animals show the effect

T1 sequence (Q9Y233 267-1055): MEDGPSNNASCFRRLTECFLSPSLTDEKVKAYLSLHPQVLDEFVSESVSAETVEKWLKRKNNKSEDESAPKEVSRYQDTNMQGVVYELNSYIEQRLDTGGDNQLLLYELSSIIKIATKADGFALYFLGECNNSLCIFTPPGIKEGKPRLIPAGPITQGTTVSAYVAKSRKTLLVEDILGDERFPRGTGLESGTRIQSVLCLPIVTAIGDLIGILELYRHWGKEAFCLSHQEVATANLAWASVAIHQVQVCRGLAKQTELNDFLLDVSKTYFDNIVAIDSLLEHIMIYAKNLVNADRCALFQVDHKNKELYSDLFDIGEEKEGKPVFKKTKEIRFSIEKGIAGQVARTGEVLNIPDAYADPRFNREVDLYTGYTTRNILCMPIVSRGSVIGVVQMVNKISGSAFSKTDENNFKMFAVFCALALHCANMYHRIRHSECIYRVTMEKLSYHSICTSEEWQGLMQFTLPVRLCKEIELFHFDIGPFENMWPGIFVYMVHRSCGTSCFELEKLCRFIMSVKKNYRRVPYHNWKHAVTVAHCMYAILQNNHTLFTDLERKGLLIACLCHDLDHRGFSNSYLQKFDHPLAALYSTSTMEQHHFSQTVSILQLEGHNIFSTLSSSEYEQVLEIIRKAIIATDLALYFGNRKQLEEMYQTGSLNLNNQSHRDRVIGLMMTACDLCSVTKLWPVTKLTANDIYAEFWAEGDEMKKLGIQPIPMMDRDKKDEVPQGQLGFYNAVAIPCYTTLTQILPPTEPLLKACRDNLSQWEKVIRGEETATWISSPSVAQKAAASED

| melting point | IC50 [2] | IC50 [3] | Average percentage of free compound in plasma ([5]; 0.1 μg/ml) | Free fraction, Average per subject ([5]; 0.1 μg/ml) | Average percentage of free compound in plasma ([5]; 13 μg/ml) | Free fraction, Average per subject ([5]; 13 μg/ml) | Concentration dependency in the plasma protein binding [5] | Compound | Free fraction ([5]; 0.1 μg/ml) | Free fraction ([5]; 13 μg/ml) | ED50 [4, 10] | further results |
| --- | --- | --- | --- | --- | --- | --- | --- | --- | --- | --- | --- | --- |
| 137.2 °C | 64.6 nM | 55 nM |  |  |  |  |  | COCC(O)c1ccc(-c2c(C)nc3c(N4CCOCC4)ccnn23)cn1 (stereo not drawn) [Compound 1, 2-Methoxy-1-[5-(2-methyl-8-morpholin-4-ylimidazo[1,2-b]pyridazin-3-yl)pyridin-2-yl]ethanol] |  |  |  | Tmax ([1]; male, human, plasma, 100 ug, fasted, Median (Min-Max)): 0.64 h; AUC(0-inf) [1, 7]: 2.64 ng·h/mL; AUC(0-t) [1, 7]: 2.61 ng·h/mL; Cmax [1, 7]: 0.758 ng/mL; Vd/F [1, 7]: 333 ± 117 L; half-life [1, 7]: 5.7 h; Cl/F, fold lower compared to compound 1 of WO2011/051342 [1]: approximately 3.8 fold; Vd/F, fold lower compared to compound 1 of WO2011/051342 [1]: approximately 3.5 fold; CL/F ([1]; fasted, mean): 47.9 ± 24.6 L/h and 47.9 L/h; λz ([1]; fasted, mean): 0.148 h⁻¹; ED50 ([4]; compound dosed orally, 1 hour pre-treatment): 1 mg/kg |
| 134.9 °C | 75.9 nM | 47.9 nM | 48.3% | 48.5% and 48.3% | 45.5% | 45.4% and 46.2% | No relevant concentration dependency | COCC(O)c1ccc(-c2c(C)nc3c(N4CCOCC4)ccnn23)cn1 (single isomer, unassigned) [Compound 1a] | 50.1% and 47.6% and 48.9% and 47.3% | 46.1% and 46.5% and 46.0% and 43.9% and 45.6% | 1.2 mg/kg | fraction unbound at 4 h, 0.1 μg/ml [6, 8]: 0.481; fraction unbound at 4 h, 0.1 μg/ml [6, 9]: 0.468; fraction unbound at 4 h, 13 μg/ml [6, 8]: 0.448; fraction unbound at 4 h, 13 μg/ml [6, 9]: 0.446; fraction unbound at 4 h ([6]; 0.1 and 13 μg/ml pooled, three subjects in duplicate, read-out: Free fraction, Average (S.D.) (n = 12)): 0.469 |
| 189.2 °C | 27.5 nM |  |  |  |  |  |  | Cc1nc2c(N3CCOCC3)ccnn2c1-c1ccc(C2(O)CCOCC2)nc1 [Compound 3, 4-[5-(2-Methyl-8-morpholin-4-ylimidazo[1,2-b]pyridazin-3-yl)pyridin-2-yl]tetrahydro-2H-pyran-4-ol] |  |  | 0.31 mg/kg |  |
| 181.6 °C | 112 nM |  |  |  |  |  |  | Cc1nc2c(N3CCOCC3)nccn2c1-c1ccc(C2(O)CCOCC2)nc1 [Compound 4, 4-[5-(2-Methyl-8-morpholin-4-ylimidazo[1,2-a]pyrazin-3-yl)pyridin-2-yl]tetrahydro-2H-pyran-4-ol] |  |  | 0.31 mg/kg |  |
| 135.7 °C | 60.3 nM | 50.1 nM | 53.4% | 54.0% and 56.3% and 50.0% | 50.9% | 52.6% and 49.6% and 50.5% | No relevant concentration dependency | COCC(O)c1ccc(-c2c(C)nc3c(N4CCOCC4)ccnn23)cn1 (single isomer, unassigned) [Compound 1b] | 55.2% and 57.4% and 46.9% and 53.1% and 54.9% | 52.7% and 46.6% and 51.4% and 49.7% and 51.9% and 53.3% |  | Free fraction, Average (S.D.) (n = 12) ([5]; 0.1 and 13 μg/ml pooled, three subjects in duplicate): 52.2 (3.2) %; APO ED50 ([4]; 1 hour pre-treatment with test compound, dose at which 50% of animals show the effect): 1.2 mg/kg |
| 106.9 °C | 263 nM |  |  |  |  |  |  | COCC(O)c1ccc(-c2c(C)nc3c(N4CCOCC4)nccn23)cn1 (stereo not drawn) [Compound 2, 2-Methoxy-1-[5-(2-methyl-8-morpholin-4-ylimidazo[1,2-a]pyrazin-3-yl)pyridin-2-yl]ethanol] |  |  | 0.31 mg/kg |  |
